Counter-ions that a name gives are not always drawn.
How the values were obtained:
human CYP11B2 = biological target: T1, human CYP11B2 (Homo sapiens, UniProt P19099); assay: G-402 cellular enzyme assay, human CYP11B2 (aldosterone release, HTRF); type: cell-based; conditions: G-402 cells expressing human CYP11B2; 1 μM Deoxycorticosterone
T1 construct: expressed in transfected cells
T1 sequence (P19099 25-503): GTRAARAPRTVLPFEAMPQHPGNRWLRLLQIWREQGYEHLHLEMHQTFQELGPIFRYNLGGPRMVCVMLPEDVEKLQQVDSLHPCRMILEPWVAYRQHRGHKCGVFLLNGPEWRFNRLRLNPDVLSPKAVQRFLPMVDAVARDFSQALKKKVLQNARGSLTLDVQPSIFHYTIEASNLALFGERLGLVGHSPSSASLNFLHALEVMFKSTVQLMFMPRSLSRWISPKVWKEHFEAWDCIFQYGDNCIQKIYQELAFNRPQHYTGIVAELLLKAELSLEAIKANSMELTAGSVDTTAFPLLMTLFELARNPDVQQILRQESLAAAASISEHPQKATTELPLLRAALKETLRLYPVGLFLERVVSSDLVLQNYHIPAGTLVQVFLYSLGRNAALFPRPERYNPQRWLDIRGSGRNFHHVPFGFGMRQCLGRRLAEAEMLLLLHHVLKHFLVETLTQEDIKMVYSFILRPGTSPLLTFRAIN
Method in brief: (§1)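 G-402 cells stably expressing human CYP11B2 or CYP11B1, in DMEM/F12 with 2.5% charcoal-treated FCS, were incubated 16 h with compound plus 1 μM deoxycorticosterone (CYP11B2) or 1 μM deoxycortisol (CYP11B1). Aldosterone or cortisol in the supernatant measured by HTRF; EC50 from a 4-parameter MMF fit.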

human CYP11B1 = biological target: T2, human CYP11B1 (Homo sapiens, UniProt P15538); assay: G-402 cellular enzyme assay, human CYP11B1 (cortisol release, HTRF); type: cell-based; conditions: G-402 cells expressing human CYP11B1; 1 μM Deoxycortisol
T2 construct: expressed in transfected cells
T2 sequence (P15538 25-503): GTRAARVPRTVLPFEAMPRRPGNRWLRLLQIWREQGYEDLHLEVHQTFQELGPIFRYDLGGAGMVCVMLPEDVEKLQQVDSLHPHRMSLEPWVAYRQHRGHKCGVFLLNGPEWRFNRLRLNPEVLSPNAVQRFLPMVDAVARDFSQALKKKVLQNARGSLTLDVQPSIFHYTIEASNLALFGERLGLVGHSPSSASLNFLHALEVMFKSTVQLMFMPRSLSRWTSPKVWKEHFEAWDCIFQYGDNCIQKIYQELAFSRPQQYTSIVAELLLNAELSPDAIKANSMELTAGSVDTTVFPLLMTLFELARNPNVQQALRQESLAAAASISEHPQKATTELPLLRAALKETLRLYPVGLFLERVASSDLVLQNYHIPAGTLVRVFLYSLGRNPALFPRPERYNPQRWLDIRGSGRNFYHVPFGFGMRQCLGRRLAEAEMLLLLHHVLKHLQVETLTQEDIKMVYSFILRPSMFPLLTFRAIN
Method in brief: as §1

SMILES | EC50 (human CYP11B2) | EC50 (human CYP11B1)
CN1C(=O)CCc2cc(-c3cncc(C(C)(C)N)c3)ccc21 [Example 72, 6-[5-(1-Amino-1-methyl-ethyl)-pyridin-3-yl]-1-methyl-3,4-dihydro-1H-quinolin-2-one] | 7 nM | 101 nM
CN1C(=O)CCc2cc(-c3cncc(C4(N)CC4)c3)ccc21 [Example 59, 6-[5-(1-Amino-cyclopropyl)-pyridin-3-yl]-1-methyl-3,4-dihydro-1H-quinolin-2-one] | 33 nM | 710 nM
CN1C(=O)CCc2cc(-c3cncc(CNC(=O)c4nccn4C)c3)ccc21 [Example 83] | 9 nM | 46 nM
CN1C(=O)CCc2cc(-c3cncc(CN4CCCCC4=O)c3)ccc21 [Example 19] | 23 nM | 800 nM
CN1C(=O)CCc2cc(-c3cncc(CNC(=O)c4ccccn4)c3)ccc21 [Example 97] | 6 nM | 111 nM
CN1C(=O)CCc2cc(-c3cncc(CN4CCC[C@H]4CO)c3)ccc21 [Example 7, 6-[5-((S)-2-Hydroxymethyl-pyrrolidin-1-ylmethyl)-pyridin-3-yl]-1-methyl-3,4-dihydro-1H-quinolin-2-one] | 56 nM | 570 nM
CN1C(=O)CCc2cc(-c3cncc(CNC(=O)C(C)(C)O)c3)ccc21 [Example 79] | 35 nM | 302 nM
CN1C(=O)CCc2cc(-c3cncc(OC4CNC4)c3)ccc21 [Example 70, 6-[5-(Azetidin-3-yloxy)-pyridin-3-yl]-1-methyl-3,4-dihydro-1H-quinolin-2-one hydrochloride] | 202 nM | 15600 nM
COC[C@@H]1CCCN1c1cncc(-c2ccc3c(c2)CCC(=O)N3C)c1 [Example 10, 6-[5-((S)-2-Methoxymethyl-pyrrolidin-1-yl)-pyridin-3-yl]-1-methyl-3,4-dihydro-1H-quinolin-2-one] | 20 nM | 170 nM
CN1C(=O)CCc2cc(-c3cncc(CNC(=O)c4ccnnc4)c3)ccc21 [Example 89] | 14 nM | 276 nM
CN1C(=O)CCc2cc(-c3cncc(CNC(=O)c4cncnc4)c3)ccc21 [Example 86] | 4 nM | 108 nM
CN1C(=O)CCc2cc(-c3cncc(O[C@H]4CCN(C(=O)OC(C)(C)C)C4)c3)ccc21 [Example 48, (S)-3-[5-(1-Methyl-2-oxo-1,2,3,4-tetrahydro-quinolin-6-yl)-pyridin-3-yloxy]-pyrrolidine-1-carboxylic acid tert-butyl ester] | 49 nM | 392 nM
CN1C(=O)CCc2cc(-c3cncc(NCCO)n3)ccc21 [Example 24] | 7 nM | 220 nM
COc1ccc(C(=O)NCc2cncc(-c3ccc4c(c3)CCC(=O)N4C)c2)nn1 [Example 100] | 7 nM | 140 nM
CN1C(=O)CCc2cc(-c3cncc(CNC(=O)c4ncc(C(F)(F)F)cn4)c3)ccc21 [Example 123] | 62 nM | 2920 nM
CN1C(=O)CCc2cc(-c3cncc(NCc4ccccc4)c3)ccc21 [Example 12] | 2 nM | 50 nM

Further lines, results first:

EC50 (human CYP11B2) | EC50 (human CYP11B1) | SMILES
2 nM | 75 nM | CN1C(=O)CCc2cc(-c3cncc(OCCNC(=O)c4ncccc4Cl)c3)c(F)cc21 [Example 244, 3-Chloro-pyridine-2-carboxylic acid {2-[5-(7-fluoro-1-methyl-2-oxo-1,2,3,4-tetrahydro-quinolin-6-yl)-pyridin-3-yloxy]-ethyl}-amide]
2 nM | 93 nM | CN1C(=O)CCc2cc(-c3cncc(OCCN4CCCS4(=O)=O)c3)ccc21 [Example 189, 6-{5-[2-(1,1-Dioxo-1λ^6-isothiazolidin-2-yl)-ethoxy]-pyridin-3-yl}-1-methyl-3,4-dihydro-1H-quinolin-2-one]
155 nM | 1370 nM | CN1C(=O)CCc2cc(-c3cncc(CNS(=O)(=O)c4ccc(Cl)c(Cl)c4)c3)ccc21 [Example 156, 3,4-Dichloro-N-[5-(1-methyl-2-oxo-1,2,3,4-tetrahydro-quinolin-6-yl)-pyridin-3-ylmethyl]-benzenesulfonamide]
59 nM | 4200 nM | CCS(=O)(=O)NCc1cncc(-c2cc(F)c3c(c2)CCC(=O)N3C)c1 [Example 208, Ethanesulfonic acid [5-(8-fluoro-1-methyl-2-oxo-1,2,3,4-tetrahydro-quinolin-6-yl)-pyridin-3-ylmethyl]-amide]
3 nM | 380 nM | CN1C(=O)CCc2cc(-c3cncc(C4(NC(=O)c5ncccc5Cl)CC4)c3)c(F)cc21 [Example 142]
19 nM | 802 nM | CN1C(=O)CCc2cc(-c3cncc(C4=CN(C(=O)OC(C)(C)C)CCC4)c3)ccc21 [Example 231, 5′-(1-Methyl-2-oxo-1,2,3,4-tetrahydro-quinolin-6-yl)-5,6-dihydro-4H-[3,3′]bipyridinyl-1-carboxylic acid tert-butyl ester]
97 nM | 4030 nM | Cc1noc(C)c1C(=O)NCc1cncc(-c2cc(Cl)c3c(c2)CCC(=O)N3)c1 [Example 205, 3,5-Dimethyl-isoxazole-4-carboxylic acid [5-(8-chloro-2-oxo-1,2,3,4-tetrahydro-quinolin-6-yl)-pyridin-3-ylmethyl]-amide]
375 nM | 11100 nM | COc1ccc(S(=O)(=O)NCc2cncc(-c3ccc4c(c3)CCC(=O)N4C)c2)cn1 [Example 153, 6-Methoxy-pyridine-3-sulfonic acid [5-(1-methyl-2-oxo-1,2,3,4-tetrahydro-quinolin-6-yl)-pyridin-3-ylmethyl]-amide]
1 nM | 8 nM | CCS(=O)(=O)N1CCC(Oc2cncc(-c3ccc4c(c3)CCC(=O)N4C)c2)CC1 [Example 161, 6-[5-(1-Ethanesulfonyl-piperidin-4-yloxy)-pyridin-3-yl]-1-methyl-3,4-dihydro-1H-quinolin-2-one]
20 nM | 2240 nM | O=C1CCc2cc(-c3cncc(CNC(=O)c4ncccc4Cl)c3)cc(Cl)c2N1 [Example 204, 3-Chloro-pyridine-2-carboxylic acid [5-(8-chloro-2-oxo-1,2,3,4-tetrahydro-quinolin-6-yl)-pyridin-3-ylmethyl]-amide]
41 nM | 834 nM | CCC(=O)NC(C)c1cncc(-c2cc3c(cc2F)N(C)C(=O)CC3)c1 (racemic) [Example 213, (rac)-N-{1-[5-(7-Fluoro-1-methyl-2-oxo-1,2,3,4-tetrahydro-quinolin-6-yl)-pyridin-3-yl]-ethyl}-propionamide]
180 nM | 7930 nM | CN1C(=O)CCc2cc(-c3cncc(CNS(=O)(=O)c4cnn(C)c4)c3)ccc21 [Example 159, 1-Methyl-1H-pyrazole-4-sulfonic acid [5-(1-methyl-2-oxo-1,2,3,4-tetrahydro-quinolin-6-yl)-pyridin-3-ylmethyl]-amide]
83 nM | 4960 nM | CCS(=O)(=O)NCc1cncc(-c2cc(Cl)c3c(c2)CCC(=O)N3)c1 [Example 203, Ethanesulfonic acid [5-(8-chloro-2-oxo-1,2,3,4-tetrahydro-quinolin-6-yl)-pyridin-3-ylmethyl]-amide]
1 nM | 16 nM | CN1C(=O)CCc2cc(-c3cncc(OCCNC(=O)OC(C)(C)C)c3)c(F)cc21 [Example 232, {2-[5-(7-Fluoro-1-methyl-2-oxo-1,2,3,4-tetrahydro-quinolin-6-yl)-pyridin-3-yloxy]-ethyl}-carbamic acid tert-butyl ester]
29 nM | 1200 nM | CN1C(=O)CCc2cc(-c3cncc(CN)c3Cl)ccc21 [Example 218, 6-(5-Aminomethyl-4-chloro-pyridin-3-yl)-1-methyl-3,4-dihydro-1H-quinolin-2-one hydrochloride]
27 nM | 705 nM | CCN(C(C)c1cncc(-c2ccc3c(c2)CCC(=O)N3C)c1)S(=O)(=O)CC (racemic) [Example 187, (rac)-Ethanesulfonic acid ethyl-{1-[5-(1-methyl-2-oxo-1,2,3,4-tetrahydro-quinolin-6-yl)-pyridin-3-yl]-ethyl}-amide]
30 nM | 104 nM | CC(C)(C)OC(=O)N1CC[C@H](Oc2cncc(-c3ccc4c(c3)CCC(=O)N4)c2)C1 [Example 214, (S)-3-[5-(2-oxo-1,2,3,4-tetrahydro-quinolin-6-yl)-pyridin-3-yloxy]-pyrrolidine-1-carboxylic acid tert-butyl ester]
